Earlier results on one molecule are cited in US20240358791A1, “PEPTIDES AND METHODS OF TREATING DYSTROPHY-RELATED DISORDERS USING THE SAME” (Prince Biotech, LLC, priority 2017, published 2024).

For this data set the following is noted: IV infusion with radiation; xerostomia treatment (Kouvaria et al 2007).

For `NCCCNCCSP(=O)(O)O` [Amifostine], the side effects result is “serious side effects including fatal skin reaction”.
